# Laboratory results as given in patent US8530489B2 (Vertex Pharmaceuticals Incorporated, priority 2006, dated 2013).
# pKi: −log10 of the molar value.
# Columns and labels:
# Type in all cases: biochemical
# PLK1 = PLK1 (Homo sapiens, UniProt P53350); assay: PLK1 Inhibition Assay I (radioactive-phosphate incorporation); conditions: Ki(app); PLK1 Inhibition Assay I or II (table does not say which)
# Procedure, shortened: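 Ki(app) values came from non-linear regression of initial rates after background subtraction, with phosphopeptide measured by phosphocellulose filter binding and scintillation counting. PLK1 at 2 nM was preincubated with compound (typically from 10 μM, 2-fold dilutions) for 10 min, then run 240 min at 25° C with 350 μM [γ-33P]ATP and 450 μM peptide substrate in HEPES pH 7.5 buffer.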
# PLK2 = PLK2 (Homo sapiens, UniProt Q9NYY3); assay: PLK2 Inhibition Assay (radioactive-phosphate incorporation); conditions: selectivity ratio, PLK2 over PLK1
# Sequence of PLK2 (Q9NYY3 whole entry): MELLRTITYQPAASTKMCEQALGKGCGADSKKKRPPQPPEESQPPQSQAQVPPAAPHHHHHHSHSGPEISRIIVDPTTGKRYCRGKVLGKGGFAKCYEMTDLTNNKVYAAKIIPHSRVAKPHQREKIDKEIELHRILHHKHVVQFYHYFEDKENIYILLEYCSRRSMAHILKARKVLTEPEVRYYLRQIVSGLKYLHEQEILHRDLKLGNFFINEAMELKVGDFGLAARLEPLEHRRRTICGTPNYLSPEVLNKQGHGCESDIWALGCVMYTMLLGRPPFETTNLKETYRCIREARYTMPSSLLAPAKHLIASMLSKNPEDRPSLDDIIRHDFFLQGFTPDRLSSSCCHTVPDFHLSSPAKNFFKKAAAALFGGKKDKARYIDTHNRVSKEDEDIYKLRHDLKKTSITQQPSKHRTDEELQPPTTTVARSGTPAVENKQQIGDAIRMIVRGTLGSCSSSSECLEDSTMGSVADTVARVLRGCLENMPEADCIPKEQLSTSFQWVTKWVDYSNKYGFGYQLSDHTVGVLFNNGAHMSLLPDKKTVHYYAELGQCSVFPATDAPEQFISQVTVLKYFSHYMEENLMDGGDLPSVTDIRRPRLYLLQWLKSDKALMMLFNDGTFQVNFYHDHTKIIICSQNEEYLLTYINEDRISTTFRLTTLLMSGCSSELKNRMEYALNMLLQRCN
# Method: (§1) The compounds of the present invention are evaluated as inhibitors of human PLK kinase using the following assays.
# Compounds were screened for their ability to inhibit PLK2 using a radioactive-phosphate incorporation assay. Assays were carried out in a mixture of 25 mM HEPES (pH 7.5), 10 mM MgCl2, 0.1% BSA, and 2 mM DTT. Final substrate concentrations were 200 μM [γ-33P]ATP (57 mCi 33P ATP/mmol ATP, Amersham Pharmacia Biotech/Sigma Chemicals) and 300 μM peptide (KKKISDELMDATFADQEAK) [SEQ ID:3]. Assays were carried out at 25° C. in the presence of 25 nM PLK2. An assay stock buffer solution was prepared containing all of the reagents listed above, with the exception of ATP and the test compound of interest. 30 μL of the stock solution was placed in a 96 well plate followed by addition of 2 μL of DMSO stock containing serial dilutions of the test compound (typically starting from a final concentration of 10 μM with 2-fold serial dilutions) in duplicate (final DMSO concentration 5%). The plate was pre-incubated for 10 minutes at 25° C. and the reaction initiated by addition of 8 μL [γ-33P]ATP (final concentration 200 μM).
# (§2) The reaction was stopped after 90 minutes by the addition of 100 μL 0.14 M phosphoric acid. A multiscreen phosphocellulose filter 96-well plate (Millipore, Cat No. MAPHN0B50) was pretreated with 100 μL 0.2M phosphoric acid prior to the addition of 125 μL of the stopped assay mixture. The plate was washed with 4×200 μL 0.2 M phosphoric acid. After drying, 100 μL Optiphase ‘SuperMix’ liquid scintillation cocktail (Perkin Elmer) was added to the well prior to scintillation counting (1450 Microbeta Liquid Scintillation Counter, Wallac).
# (§3) After removing mean background values for all of the data points, Ki(app) data were calculated from non-linear regression analysis of the initial rate data using the Prism software package (GraphPad Prism version 3.0cx for Macintosh, GraphPad Software, San Diego Calif., USA).
# PLK3 (S38-A340) = target: T1, PLK3 (S38-A340) (Homo sapiens, UniProt Q9H4B4); assay: PLK3 Inhibition Assay (radioactive-phosphate incorporation); conditions: selectivity ratio, PLK3 over PLK1
# T1 construct: in the presence of 5 nM PLK3 (S38-A340)
# T1 sequence (Q9H4B4 58-340 limits assumed): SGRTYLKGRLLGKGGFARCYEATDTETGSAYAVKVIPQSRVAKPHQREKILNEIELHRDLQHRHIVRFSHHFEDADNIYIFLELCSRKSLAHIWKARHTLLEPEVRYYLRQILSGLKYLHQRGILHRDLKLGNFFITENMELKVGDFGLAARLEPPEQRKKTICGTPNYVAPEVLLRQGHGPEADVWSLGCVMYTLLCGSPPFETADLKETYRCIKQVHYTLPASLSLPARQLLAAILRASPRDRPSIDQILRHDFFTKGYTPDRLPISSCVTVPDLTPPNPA
# Method: as §1
# Compounds were screened for their ability to inhibit PLK3 using a radioactive-phosphate incorporation assay. Assays were carried out in a mixture of 25 mM HEPES (pH 7.5), 10 mM MgCl2, and 1 mM DTT. Final substrate concentrations were 75 μM [γ-33P]ATP (60 mCi 33P ATP/mmol ATP, Amersham Pharmacia Biotech/Sigma Chemicals) and 10 μM peptide (SAM68 protein Δ332-443). Assays were carried out at 25° C. in the presence of 5 nM PLK3 (S38-A340). An assay stock buffer solution was prepared containing all of the reagents listed above, with the exception of ATP and the test compound of interest. 30 μL of the stock solution was placed in a 96 well plate followed by addition of 2 μL of DMSO stock containing serial dilutions of the test compound (typically starting from a final concentration of 10 μM with 2-fold serial dilutions) in duplicate (final DMSO concentration 5%). The plate was pre-incubated for 10 minutes at 25° C. and the reaction initiated by addition of 8 μL [γ-33P]ATP (final concentration 75 μM).
# as §2, with “60” for “90”, “0.14M” for “0.14 M”
# as §3
# Sequence of PLK1 (P53350 whole entry): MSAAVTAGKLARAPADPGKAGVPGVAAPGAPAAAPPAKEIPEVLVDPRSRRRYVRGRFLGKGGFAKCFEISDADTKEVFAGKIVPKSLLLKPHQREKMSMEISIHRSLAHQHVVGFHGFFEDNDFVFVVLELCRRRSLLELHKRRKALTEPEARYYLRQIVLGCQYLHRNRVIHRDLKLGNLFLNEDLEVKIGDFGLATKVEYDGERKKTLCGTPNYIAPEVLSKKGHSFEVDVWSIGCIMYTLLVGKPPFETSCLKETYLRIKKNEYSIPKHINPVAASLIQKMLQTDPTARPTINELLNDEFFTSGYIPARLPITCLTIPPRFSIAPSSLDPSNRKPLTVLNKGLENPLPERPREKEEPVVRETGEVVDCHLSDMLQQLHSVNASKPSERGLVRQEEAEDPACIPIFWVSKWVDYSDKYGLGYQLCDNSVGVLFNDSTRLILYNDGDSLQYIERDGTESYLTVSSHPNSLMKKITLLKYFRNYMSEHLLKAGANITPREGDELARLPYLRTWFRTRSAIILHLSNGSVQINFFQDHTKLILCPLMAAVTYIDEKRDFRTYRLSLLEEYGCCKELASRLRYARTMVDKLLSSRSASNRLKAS
Structure (SMILES),pKi (PLK1),Ki(PLK2)/Ki(PLK1) (PLK2),Ki(PLK3)/Ki(PLK1) (PLK3 (S38-A340))
"C[C@@H](Nc1ncc(C#N)c(-c2c[nH]c3ncc(C(F)(F)F)cc23)n1)c1ccc(N2CCN(C)CC2)cc1 [Compound I-127, 2-((R)-1-(4-(4-methylpiperazin-1-yl)phenyl)ethylamino)-4-(5-(trifluoromethyl)-1H-pyrrolo[2,3-b]pyridin-3-yl)pyrimidine-5-carbonitrile]",> 8.52,210,140
"CC(Nc1ncc(C#N)c(-c2c[nH]c3ncc(C(F)(F)F)cc23)n1)c1ccc(N2CCCNCC2)cc1 (stereo not drawn) [Compound I-131, 2-(1-(4-(1,4-diazepan-1-yl)phenyl)ethylamino)-4-(5-(trifluoromethyl)-1H-pyrrolo[2,3-b]pyridin-3-yl)pyrimidine-5-carbonitrile]",> 8.52,180,163
"CC(Nc1ncc(C#N)c(-c2c[nH]c3ncc(C(F)(F)F)cc23)n1)c1ccc(N2CCN(C)CC2)nc1 (stereo not drawn) [Compound I-139, 2-(1-(6-(4-methylpiperazin-1-yl)pyridin-3-yl)ethylamino)-4-(5-(trifluoromethyl)-1H-pyrrolo[2,3-b]pyridin-3-yl)pyrimidine-5-carbonitrile]",> 8.52,1000,456
"C[C@@H](Nc1ncc(C#N)c(-c2c[nH]c3ncc(C(F)(F)F)cc23)n1)c1ccc(N2CCN(C)CC2)c(F)c1 [Compound I-142, 2-((R)-1-(3-fluoro-4-(4-methylpiperazin-1-yl)phenyl)ethylamino)-4-(5-(trifluoromethyl)-1H-pyrrolo[2,3-b]pyridin-3-yl)pyrimidine-5-carbonitrile]",> 8.52,<30,<23
C[C@H](Nc1ncc(C#N)c(-c2c[nH]c3ncc(C(F)(F)F)cc23)n1)c1ccc(N2CCN(C)CC2)nc1 [Compound I-148],7.40 to 8.52,63,70
"C[C@@H](Nc1ncc(C#N)c(-c2c[nH]c3ncc(C(F)(F)F)cc23)n1)c1ccc(N2CCN(C)CC2)cc1F [Compound I-149, 2-((R)-1-(2-fluoro-4-(4-methylpiperazin-1-yl)phenyl)ethylamino)-4-(5-(trifluoromethyl)-1H-pyrrolo[2,3-b]pyridin-3-yl)pyrimidine-5-carbonitrile]",> 8.52,<130,<100
"CC(Nc1ncc(C#N)c(-c2c[nH]c3ncc(C(F)(F)F)cc23)n1)c1ccc(N2CCNCC2)nc1 (stereo not drawn) [Compound I-167, 2-(1-(6-(piperazin-1-yl)pyridin-3-yl)ethylamino)-4-(5-(trifluoromethyl)-1H-pyrrolo[2,3-b]pyridin-3-yl)pyrimidine-5-carbonitrile]",> 8.52,914,586
"C[C@@H](Nc1ncc(C#N)c(-c2c[nH]c3ncc(C(F)(F)F)cc23)n1)c1cnc(N[C@H]2CCN(C)C2)nc1 [Compound I-268, 2-((R)-1-(2-((S)-1-methylpyrrolidin-3-ylamino)pyrimidin-5-yl)ethylamino)-4-(5-(trifluoromethyl)-1H-pyrrolo[2,3-b]pyridin-3-yl)pyrimidine-5-carbonitrile]",> 8.52,293,141

# Now from value to molecule:
pKi (PLK1),Ki(PLK2)/Ki(PLK1) (PLK2),Ki(PLK3)/Ki(PLK1) (PLK3 (S38-A340)),Structure (SMILES)
> 8.52,67,14,"CC(Nc1ncc(C#N)c(-c2c[nH]c3ncc(C(F)(F)F)cc23)n1)c1ccc(N[C@@H]2CCNC2)nc1 (stereo partly drawn) [Compound I-272, 2-(1-(6-((R)-pyrrolidin-3-ylamino)pyridin-3-yl)ethylamino)-4-(5-(trifluoromethyl)-1H-pyrrolo[2,3-b]pyridin-3-yl)pyrimidine-5-carbonitrile]"
> 8.52,1813,581,"C[C@H]1CN(c2ccc([C@@H](C)Nc3ncc(C#N)c(-c4c[nH]c5ncc(C(F)(F)F)cc45)n3)cn2)CCN1 [Compound I-273, 2-((R)-1-(6-((S)-3-methylpiperazin-1-yl)pyridin-3-yl)ethylamino)-4-(5-(trifluoromethyl)-1H-pyrrolo[2,3-b]pyridin-3-yl)pyrimidine-5-carbonitrile]"
> 8.52,313,919,"CNCCN(C)c1ccc([C@@H](C)Nc2ncc(C#N)c(-c3c[nH]c4ncc(C(F)(F)F)cc34)n2)cn1 [Compound I-275, 2-((R)-1-(6-(methyl(2-(methylamino)ethyl)amino)pyridin-3-yl)ethylamino)-4-(5-(trifluoromethyl)-1H-pyrrolo[2,3-b]pyridin-3-yl)pyrimidine-5-carbonitrile]"
> 8.52,208,142,"CNCCNc1ccc(C(C)Nc2ncc(C#N)c(-c3c[nH]c4ncc(C(F)(F)F)cc34)n2)cn1 (stereo not drawn) [Compound I-278, 2-(1-(6-(2-(methylamino)ethylamino)pyridin-3-yl)ethylamino)-4-(5-(trifluoromethyl)-1H-pyrrolo[2,3-b]pyridin-3-yl)pyrimidine-5-carbonitrile]"
